Source: the supplement of paper PMC10307832

Assays:
Experiment in all cases: relative viability (nuclei count vs DMSO), 5 days (fraction); higher = more cells survive
[1] = compound: CC1=C(C(=O)N2C=CSC2=N1)CCN3CCC(=C(C4=CC=CC=C4)C5=CC=C(C=C5)F)CC3
Method in brief: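 Viability was read as treated-well nuclei divided by vehicle-well nuclei, using the median across plates. Lung cancer cell lines in 1536-well plates were kept overnight at 37 °C, pinned with five √10-spaced library-drug doses, and after 5 days were Hoechst-stained, imaged at 4× and counted in MetaXpress. Plates passed only with control CV below 25% and at least one doubling.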

[2] = compound: CC1=C(C(=O)N2C=CSC2=N1)CCN3CCC(=C(C4=CC=CC=C4)C5=CC=C(C=C5)F)CC3 + CC(=O)c1c(C)c2cnc(Nc3ccc(N4CCNCC4)cn3)nc2n(C2CCCC2)c1=O [Palbociclib] (partner 0.5 µM)
Method in brief: (§1)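 Relative viability is defined as nuclei in treated wells over nuclei in vehicle wells. Duplicate plates were run and medians reported. Lung cancer cell lines in 1536-well plates were dosed by pin tool one day after seeding, with one drug or with a fixed anchor-drug dose plus five library-drug doses (not always all listed) in √10 steps, and nuclei were counted after 5 days.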

[3] = compound: CC1=C(C(=O)N2C=CSC2=N1)CCN3CCC(=C(C4=CC=CC=C4)C5=CC=C(C=C5)F)CC3 + COc1cc2c(Oc3ccc(NC(=O)C4(C(=O)Nc5ccc(F)cc5)CC4)cc3F)ccnc2cc1OCCCN1CCOCC1 [Foretinib] (partner 0.25 µM)
Method in brief: as §1

[4] = compound: CC1=C(C(=O)N2C=CSC2=N1)CCN3CCC(=C(C4=CC=CC=C4)C5=CC=C(C=C5)F)CC3 + COc1cccc2cc(-c3nc([C@H]4CC[C@H](C(=O)O)CC4)n4ncnc(N)c34)[nH]c12 [OSI-027] (partner 0.5 µM)
Method in brief: as §1

Cell Line	relative viability ([1]; 0.08 µM)	relative viability ([1]; 0.253 µM)	relative viability ([1]; 0.8 µM)	relative viability ([1]; 2.53 µM)	relative viability ([1]; 8 µM)	relative viability ([2]; first compound 0.08 µM)	relative viability ([2]; first compound 0.253 µM)	relative viability ([2]; first compound 0.8 µM)	relative viability ([2]; first compound 2.53 µM)	relative viability ([2]; first compound 8 µM)	relative viability ([3]; first compound 0.08 µM)	relative viability ([3]; first compound 0.253 µM)	relative viability ([3]; first compound 0.8 µM)	relative viability ([3]; first compound 2.53 µM)	relative viability ([3]; first compound 8 µM)	relative viability ([4]; first compound 0.08 µM)	relative viability ([4]; first compound 0.253 µM)	relative viability ([4]; first compound 0.8 µM)	relative viability ([4]; first compound 2.53 µM)	relative viability ([4]; first compound 8 µM)
201T	1.04	1.04	0.986	1.04	1.01	0.355	0.35	0.366	0.35	0.348	1.1	1.26	1.16	1.25	0.864	0.579	0.663	0.81	0.842	0.695
A-427	0.983	1.08	0.945	1.04	0.939	0.533	0.565	0.499	0.541	0.531	1.08	1.1	1.16	1.15	1	0.421	0.364	0.421	0.49	0.432
ABC-1	1.04	0.858	0.871	0.888	0.592	0.579		0.581	0.559	0.67	1.03	1.18	0.958	0.869	0.635	0.547	0.394	0.434	0.372	0.266
BEN	0.886	1	1	1.07	0.856	0.455	0.498	0.479	0.558	0.498	0.708	0.74	0.639	0.677	0.595	0.294	0.311	0.283	0.318	0.278
CAL-12T	1.02	1.08	0.953	1.02	0.723	0.371	0.389	0.434	0.462	0.319	1.17	1.04	1.29	1.23	0.691	0.826	0.718	0.603	0.586	0.428
COR-L23	0.883	1.16	1.22	1.19	0.519	0.292	0.306	0.255	0.286	0.27	0.898	1.02	1.07	1.23	0.584	0.778	0.667	0.702	0.778	0.619
COR-L 105	0.89	0.928	0.787	0.852	0.845	0.439	0.419	0.383	0.406	0.383	0.574	1.05	1.02	1.56	0.761	0.682	0.726	0.695	0.835	0.644
Calu-6	0.906	1.02	1.04	1.03	0.602						0.93	0.93	0.863	0.898	0.707					
ChaGo-K-1	0.86	1.1	1.06	1.09	0.623	0.919	0.92	0.989	1.05	0.649	0.884	1.04	1.04	0.942	0.548	0.595	0.636	0.533	0.584	0.489
EBC-1	0.845	0.881	1.09	1.02	0.671						0.109	0.101	0.104	0.108	0.106					
HCC-44	1.07	1.04	0.997	1.15	0.888	0.956	0.997	1.02	1.01	0.86						0.69	0.548		0.494	0.491
IA-LM	0.761	0.928	1.1	0.944	0.497						1.1	1.06	1.24	1.22	0.691					
NCI-H596	1.02	0.964	0.981	0.952	0.852						0.797	0.936	0.885	1.1	0.519	0.668	0.788	0.746	0.827	0.41
NCI-H1299	1.08	1	1	1.01	0.714						1.19	1.14	1.13	1.14	1.02					
NCI-H1563	0.903	0.949	0.882	0.986	0.918						0.943	0.87	0.907	0.946	0.769	0.85	0.72	0.732	0.763	0.644
NCI-H1648	0.797	0.802	0.802	0.706	0.883	0.254	0.316	0.22	0.326	0.249						0.229			0.209	0.265
NCI-H1703	1.03	0.821	0.865	1.13	0.624						0.4	0.415	0.321	0.363	0.319					
NCI-H1792	0.759	0.825	0.942	0.856	0.403	0.353	0.663	0.649	0.564	0.271						0.596	0.643	0.789	0.566	0.485
